Consider ten molecules from US6833372B2, “Non-peptide GnRH agents, Pharmaceutical compositions, and methods for their use” (Pfizer, Inc., priority 2002, dated 2004).

Molecules are shown by their SMILES.

A word on the Ki: it is a measure of affinity in units of concentration, obtained from inhibition or displacement.

The experiment concerns the target T1, human GnRH receptors (Homo sapiens, UniProt P30968).
T1 construct: expressed in transfected cells; host or cells: HEK 293 cells, stably transfected; membranes
T1 sequence (P30968 1-328): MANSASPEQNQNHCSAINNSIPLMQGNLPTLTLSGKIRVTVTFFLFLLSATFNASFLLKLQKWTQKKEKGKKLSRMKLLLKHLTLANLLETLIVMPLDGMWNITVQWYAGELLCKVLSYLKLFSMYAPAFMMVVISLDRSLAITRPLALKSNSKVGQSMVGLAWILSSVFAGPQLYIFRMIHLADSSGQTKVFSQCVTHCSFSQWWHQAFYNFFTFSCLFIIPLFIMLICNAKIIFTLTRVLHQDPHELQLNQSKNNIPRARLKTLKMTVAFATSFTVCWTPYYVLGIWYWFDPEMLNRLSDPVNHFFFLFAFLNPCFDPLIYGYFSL
Nature of the experiment: Radioligand binding: inhibition of 125I-GnRH-A binding to human GnRH receptor membranes. The following applies: HEK 293 cell membranes. On the procedure: HEK 293 cells stably transfected with mouse or human GnRH receptors as described above were grown in Dulbecco's high-glucose, modified Eagle's medium (DMEM) supplemented with 0.2% G418, 10% fetal bovine serum (FBS) and 100 U/mL penicillin/streptomycin. GH3 cells stably transfected with the rat GnRH receptor (GGH3) were provided by Dr. William Chin (Harvard Medical School, Boston, Mass.). These cells have been extensively characterized previously (Kaiser et al., 1997). The cells were grown in low glucose DMEM containing: 100U/mL penicillin/streptomycin, 0.6% G418 and 10% heat-inactivated FBS.
HEK 293 cells containing mouse or human receptors, or rat pituitaries (Pel Freez Biologicals, Rogers, Ark.) were homogenized in buffer A containing: 50 mM Tris (pH 7.4), 0.32 M sucrose, 2 mM EGTA, 1 mM PMSF, 5 μg/ml aprotinen, 5 μg/ml Pepstatin A, and 1 μg/ml leupeptin. Homogenized cells were centrifuged at 4° C. at 20,000×g for 25 minutes, re-suspended in buffer A and re-centrifuged at 4° C. at 20,000×g for an additional 25 minutes. Total membrane protein was determined with a BCA kit (Pierce, Rockford, Ill.). Membranes were stored at −70° C. at a final membrane protein concentration of approximately 5 mg/ml.
The radioiodinated agonist analog of GnRH, [des-Gly^10,D-Ala^6]GnRH ethylamide (^125I-GnRH-A), was used as the radioligand. […] The reaction mixture was vortexed and incubated for 1 minute at room temperature. After one minute, the mixture was vortexed and allowed to incubate for an additional minute. 2 ml of 0.5 M acetic acid/1% BSA was added to the reaction tube and the mixture was added to a C18 Sep-Pak cartridge. The cartridge was washed with subsequent washes of 5 ml H2O and 5 ml 0.5 M acetic acid and then eluted with 5×1 ml of 60% CH3CN/40% 0.5 M acetic acid. The eluate was diluted with 3× volume of HPLC buffer A (0.1% TFA in H2O) and loaded onto a C18 column. The iodinated product was eluted over 20-25 min with a gradient of 25-100% CH3CN containing 0.1% TFA. The radioactive fractions (750 μl/fraction) were collected into clean polypropylene tubes containing 100 μl of 10% BSA. Fractions were assessed for biological activity by radioligand binding. Specific activity of the radioligand was approximately 2200 Ci/mmol.
Membranes were diluted to 0.01-0.5 mg/ml (depending upon the species of receptor) with assay buffer containing 50 mM HEPES (pH 7.4), 1 mM EDTA, 2.5 mM MgCl2, and 0.1% BSA. Membranes (diluted to utilize similar receptor numbers between assays) were incubated with approximately 0.04-0.06 nM ^125I-GnRH-A in the presence or absence of competing agents (0.1-10,000 nM) in a total volume of 200 μl in 96-well polypropylene plates for 1 hour at room temperature. Assays were stopped by rapid filtration onto 96-well GF/C filters soaked in 0.1% polyethylenimine (PEI) utilizing a Packard 96-well cell harvester. Filters were washed three times with ice-cold PBS (50 mM NaPO4, 0.9% NaCl, 2 mM MgCl2, and 0.02% NaN3, pH 7.4). 35 μl of scintillation cocktail was added to each filter well and filters were counted on a Packard Topcount. Control dose-response curves were generated to GnRH (0.1 nM-100 nM) in each competition binding experiment. Ki values were calculated from IC50 values according to Cheng et al., Biochemical Pharmacol. 22: 3099-3108, 1973. [formula]
Regarding `CCc1ccc(CN(CCCO)c2nc(OC)c(NC(=O)c3ccc(Cc4cc5c(cc4C)C(C)(C)OC5(C)C)o3)c(OC)n2)cc1` [Example D48, N-{2-[(4-Ethylbenzyl)(3-hydroxypropyl)amino]-4,6-dimethoxypyrimidin-5-yl}-5-[(1,1,3,3,6-pentamethyl-1,3-dihydro-2-benzofuran-5-yl)methyl]-2-furamide], affinity was put at a Ki of 240 nM. That is a sub-micromolar value.
`CCOC(=O)CN(Cc1ccccc1)c1nc(OC)c(NC(=O)c2ccc(Cc3cc4c(cc3C)C(C)(C)OC4(C)C)o2)c(OC)n1` [Example D51, Ethyl N-benzyl-N-[4,6-dimethoxy-5-({5-[(1,1,3,3,6-pentamethyl-1,3-dihydro-2-benzofuran-5-yl)methyl]-2-furoyl}amino)pyrimidin-2-yl]glycinate]: the affinity corresponds to a Ki of 202 nM.
`COc1ccccc1C1CCN(c2nc(OC)c(NC(=O)c3ccc(Cc4cc5c(cc4C)C(C)(C)OC5(C)C)o3)c(OC)n2)CC1` [Example D52, N-{4,6-Dimethoxy-2-[4-(2-methoxyphenyl)piperidin-1-yl]pyrimidin-5-yl}-5-[(1,1,3,3,6-pentamethyl-1,3-dihydro-2-benzofuran-5-yl)methyl]-2-furamide] yielded a Ki of 260 nM. This Ki and that of the molecule before are within 1.5-fold of each other.
The molecule `COc1nc(N2CCN(Cc3ccncc3)CC2)nc(OC)c1NC(=O)c1ccc(Cc2cc3c(cc2C)C(C)(C)OC3(C)C)o1` [Example D54, N-{4,6-Dimethoxy-2-[4-(pyridin-4-ylmethyl)piperazin-1-yl]pyrimidin-5-yl}-5-[(1,1,3,3,6-pentamethyl-1,3-dihydro-2-benzofuran-5-yl)methyl]-2-furamide] gave a Ki of 150 nM.
With `COc1nc(NCc2ccc(-c3ccccc3)cc2)nc(OC)c1NC(=O)c1ccc(Cc2cc3c(cc2C)C(C)(C)OC3(C)C)o1` [Example D55, N-{2-[(1,1′-Biphenyl-4-ylmethyl)amino]-4,6-dimethoxypyrimidin-5-yl}-5-[(1,1,3,3,6-pentamethyl-1,3-dihydro-2-benzofuran-5-yl)methyl]-2-furamide] the figure was 160 nM; with `COc1nc(N2CCN(c3cc(C(F)(F)F)nc4ccccc34)CC2)nc(OC)c1NC(=O)c1ccc(Cc2cc3c(cc2C)C(C)(C)OC3(C)C)o1` [Example D61, N-(4,6-dimethoxy-2-{4-[2-(trinfluoromethyl)quinolin-4-yl]piperazin-1-yl}pyrimidin-5-yl)-5-[(1,1,3,3,6-pentamethyl-1,3-dihydro-2-benzofuran-5-yl)methyl]-2-furamide], 500 nM.
With `COc1nc(N2CCN(c3ccc(Cl)cc3)CC2)nc(OC)c1NC(=O)c1ccc(Cc2cc3c(cc2C)C(C)(C)OC3(C)C)o1` [Example D62, N-{2-[4-(4-Chlorophenyl)piperazin-1-yl]-4,6-dimethoxypyrimidin-5-yl}-5-[(1,1,3,3,6-pentamethyl-1,3-dihydro-2-benzofuran-5-yl)methyl]-2-furamide], affinity was put at a Ki of 120 nM.
The molecule `COc1nc(NCCCN2CCN(C)CC2)nc(OC)c1NC(=O)c1ccc(Cc2cc3c(cc2C)C(C)(C)OC3(C)C)o1` [Example D63, N-(4,6-Dimethoxy-2-{[3-(4-methylpiperazin-1-yl)propyl]amino}pyrimidin-5-yl)-5-[(1,1,3,3,6-pentamethyl-1,3-dihydro-2-benzofuran-5-yl)methyl]-2-furamide] gave a Ki of 1.8 nM.
On to `COc1nc(N[C@H](CO)Cc2c[nH]c3ccccc23)nc(OC)c1NC(=O)c1ccc(Cc2cc3c(cc2C)C(C)(C)OC3(C)C)o1` [Example D64, N-(2-{[(1S)-2-Hydroxy-1-(1H-indol-3-ylmethyl)ethyl]amino}-4,6-dimethoxypyrimidin-5-yl)-5-[(1,1,3,3,6-pentamethyl-1,3-dihydro-2-benzofuran-5-yl)methyl]-2-furamide], for which the affinity corresponds to a Ki of 21 nM.
`COc1nc(NCCc2ccccn2)nc(OC)c1NC(=O)c1ccc(Cc2cc3c(cc2C)C(C)(C)OC3(C)C)o1` [Example D65, N-{4,6-Dimethoxy-2-[(2-pyridin-2-ylethyl)amino]pyrimidin-5-yl}-5-[(1,1,3,3,6-pentamethyl-1,3-dihydro-2-benzofuran-5-yl)methyl]-2-furamide] gave an inhibitory constant (Ki) of 6.7 nM.
